Laboratory results reported in patent US20260191815A1, “THIOACRYLAMIDE DERIVATIVES FOR USE IN THE PREVENTION OR TREATMENT OF LIVER FIBROSIS” (CMR CUREDIAB METABOLIC RESEARCH GMBH, priority 2022, published 2026).

Tests used:
[1] = tested on: CCl4-intoxicated C57BL/6J mice; experiment: CCl4-induced liver fibrosis in mice, oral gavage once daily for 2 weeks; format: in vivo, mouse
Protocol: C57BL/6J mice were housed in housing cages GM500 (500 cm^3) throughout the experimental phase. Animals' cages litters were changed at least once a week. They were housed in groups of 4 animals on a normal 12-hour light cycle (at 07:30 pm lights off), 22±2° C. and 55±10% relative humidity. Animals were acclimated for 5 days. During the whole phase standard diet (SAFE, Ref.: U8400G10R) and tap water were provided ad libitum.
After the acclimation period, mice were intoxicated with CCl4 i.p. twice weekly for 2 weeks to induce liver fibrosis. Body weight was recorded twice weekly for the 2-week intoxication period. After 2 weeks of CCl4 injection (~72 hours after the 4th injection of CCl4), mice were weighted and bled at ~08:00 am to collect blood (150 μL blood on heparin by retro-orbital bleeding under isoflurane anaesthesia) and measure plasma ALT and AST levels. Mice were then randomized into 2 homogenous groups (n=10/group) based on 1) ALT, 2) AST and 3) body weight.
Mice were treated by oral gavage once daily with vehicle or HK3 for 2 weeks (from day 0 to day 13). During this 2-week treatment period, CCl4 twice weekly i.p. injection was still performed until the end of the in-life phase. Body weight was recorded twice weekly, during the 2-week treatment period.
At the end of the treatment period (~48 hours after the last injection of CCl4), all mice were weighed and 3 h-fasted at ~10:00 am. The last dose of vehicle and test compound was administered at ~10:00 am, prior to blood collection (retro-orbital bleeding under isoflurane anesthesia for maximal volume/heparin) at ~1:00 pm. Plasma was isolated and immediately stored at −80° C.
Subsequently, the liver of each mouse was collected and weighted. Liver samples were dissected from the left lateral lobe for formalin-fixed paraffin-embedded samples for shipment for histology analysis (H&E and Sirius Red staining), % Sirius Red labelling and NAS scoring.
A total of 50 slides, each having a single hepatic lobe section stained with H&E (25) and Sirius red (25) were digitized using a Nanozoomer from Hamamatsu at Sciempath laboratory and posted on a secured digital slide server. They were downloaded and visualized using NDP viewer. Sections were evaluated with knowledge of groups but without knowledge of treatment. Each section was evaluated and individually scored.
A NAFLD scoring system (NAS), with which a total of four variables was qualitatively assessed and ranked with a score: (1) hepatocellular steatosis, (2) liver inflammation, (3) lobular fibrosis, and (4) hepatocyte ballooning.
An individual mouse NAS total score was calculated for each animal by summing up the score for (1) hepatocellular steatosis, (2) liver inflammation, (3) lobular fibrosis, and (4) hepatocyte ballooning. Whole-section histomorphometric measurements of positive area for Sirius Red were performed using computer-assisted image analysis on digitized sections. The histomorphometric measurements were generated with the software from Visiopharm (Denmark) using an automated approach. Analysis was performed on virtual whole sections at 20× magnification for morphometric evaluation. The pixel value at 20× magnification corresponded to 0.46 μm/pixel.
An algorithm was prepared for Sirius Red (SR) morphometric measurement on liver-stained sections. The algorithm was generated with the Bayesian linear segmentation tool in the software package, which was further refined through training on a subset of sections from 5 animals. Major histology section artefacts, as well as, large vascular empty spaces were automatically dissected and removed from area of interest (AOI) or detected positive area. Also, positive collagen from capsule and large vessels media layer was automatically excluded from SR positive area.
The total area analysed or AOI (mm2), the total SR positive area (mm2) and the percent “SR” area/total liver area analysed (%) were determined. […]

[2] = tested on: IL-8 secretion in 3D PHH:NPC spheroids; experiment: IL-8 secretion (Luminex) by 3D PHH:NPC NASH spheroids; format: cell-based, human; settings: across 1-10 μM, NASH medium
Protocol: Experiments were conducted using HepaPredict's (HepaPredict AB, Sweden) 3D primary human hepatocyte (PHH) spheroid NASH model (e.g. as published in Bell et al. Sci Rep. 2016 May 4; 6:25187. doi: 10.1038/srep25187).
Cryopreserved primary human hepatocytes were obtained from BioIVT (USA) and nonparenchymal cells (NPC) from LifeNetHealth (USA). After thawing, PHH-NPC cocultures were seeded in a multi-well 96-well Elplasia plate (Corning) in William's E medium containing 11 mM glucose, 10 μg/mL (control) or 10 mg/mL insulin (NASH), 100 nM dexamethasone, 5.5 mg/L transferrin, 6.7 μg/L selenite, 2 mM L-glutamine, 1 U/mL penicillin, 0.1 mg/mL streptomycin, and 10% fetal bovine serum (FBS). […]
After spheroid formation, cells were exposed to up to five different concentrations of the candidate molecules HK1 or HK3 (0.1 μM, 0.3 μM, 1 μM, 3 μM, and 10 μM) with or without FFA in the culture medium. […] All endpoints were evaluated after 14 days of exposure. […]
Secreted cytokines (IL-6 and IL-8) were measured in culture supernatants using a customized Magnetic Luminex Performance Assay (Human Cytokine Panel A, R&D Systems). […] The fluorescence intensity was measured using a Bio-Plex 200 system (Bio-Rad), the median fluorescence intensity of each analyte was analyzed with the Bio-Plex Manage software (version 6.2) using a 5-parameter regression algorithm. […]

[3] = CCl4 mice, oral gavage once daily, 2 weeks

Cc1cc(NC(=S)/C(C#N)=C(\O)C2CC2)ccc1[N+](=O)[O-] [HK3, 2-Cyano-3-cyclopropyl-3-hydroxy-N-(3-methyl-4-nitro-phenyl)-thioacrylamide]
percentage of Sirius Red labelling compared to baseline group ([1]; CCl4 mice, liver sections, p<0.01): significantly increased
percentage of Sirius Red labelling compared to the vehicle group ([1]; CCl4 mice, liver sections, p<0.05): significantly reduced
number of mice with a fibrosis score equal to 2 ([1]; CCl4 mice, n=10/group): 9 mice
number of mice with a fibrosis score equal to 3 ([1]; CCl4 mice, n=10/group): 1 mouse
body weight and body weight gain compared to vehicle treatment [1, 3]: not altered
liver weight and relative liver weight compared to vehicle treatment [1, 3]: did not change
plasma ALT and AST levels compared to vehicle treatment [1, 3]: did not change
fibrosis score, treated group versus vehicle-treated group ([1]; CCl4 mice, p<0.05): significant difference
fibrosis score, treated group versus baseline group ([1]; CCl4 mice, baseline = CCl4 for two weeks only): no significant difference
TNF-α levels in liver homogenates compared to CCl4-treated group ([1]; combined administration with CCl4, p<0.05): slight but significant downregulation
IL-8 levels compared to NASH [2]: 80-91%
